Test results from ChEMBL document CHEMBL4507329, “Data for DCP probe BTZO-1” (2021).

Legend:
[1] = system: Tyrosine-protein kinase ABL1 (Homo sapiens), P00519 [H396P]; conditions: Compound concentration 1000.0 nM
[2] = system: Tyrosine-protein kinase ABL1 (Homo sapiens), P00519 [Q252H]; conditions: Compound concentration 1000.0 nM
[3] = target: Tyrosine-protein kinase ABL1 (Homo sapiens) (UniProt P00519); conditions: Compound concentration 1000.0 nM
[4] = target: Atypical kinase COQ8A, mitochondrial (Homo sapiens) (UniProt Q8NI60); conditions: Compound concentration 1000.0 nM
Chain of Atypical kinase COQ8A, mitochondrial (Homo sapiens) (Q8NI60 163-647 limits assumed): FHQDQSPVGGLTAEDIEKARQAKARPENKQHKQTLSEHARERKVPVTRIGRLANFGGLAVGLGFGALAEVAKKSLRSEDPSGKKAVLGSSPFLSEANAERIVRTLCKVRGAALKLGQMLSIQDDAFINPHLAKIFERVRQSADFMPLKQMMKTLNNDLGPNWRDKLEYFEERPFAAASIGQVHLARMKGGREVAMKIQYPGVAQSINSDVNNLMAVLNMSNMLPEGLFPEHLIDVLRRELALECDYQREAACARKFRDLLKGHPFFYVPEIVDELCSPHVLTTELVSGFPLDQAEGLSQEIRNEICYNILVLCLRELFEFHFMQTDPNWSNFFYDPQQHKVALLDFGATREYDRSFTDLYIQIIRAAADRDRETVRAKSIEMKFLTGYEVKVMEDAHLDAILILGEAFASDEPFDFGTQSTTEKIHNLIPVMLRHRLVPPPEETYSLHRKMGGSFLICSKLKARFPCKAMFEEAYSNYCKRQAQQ

[5] = target: RAC-alpha serine/threonine-protein kinase (Homo sapiens) (UniProt P31749); conditions: Compound concentration 1000.0 nM
[6] = target: 5'-AMP-activated protein kinase catalytic subunit alpha-1 (Homo sapiens) (UniProt Q13131); conditions: Compound concentration 1000.0 nM
[7] = target: Mitogen-activated protein kinase kinase kinase 6 (Homo sapiens) (UniProt O95382); conditions: Compound concentration 1000.0 nM
[8] = system: Serine/threonine-protein kinase B-raf (Homo sapiens), P15056 [V600E]; conditions: Compound concentration 1000.0 nM
[9] = target: Calcium/calmodulin-dependent protein kinase type IV (Homo sapiens) (UniProt Q16566); conditions: Compound concentration 1000.0 nM
[10] = target: Cyclin-dependent kinase-like 3 (Homo sapiens) (UniProt Q8IVW4); conditions: Compound concentration 1000.0 nM
[11] = target: Myotonin-protein kinase (Homo sapiens) (UniProt Q09013); conditions: Compound concentration 1000.0 nM
Chain of Myotonin-protein kinase (Homo sapiens) (Q09013 whole entry): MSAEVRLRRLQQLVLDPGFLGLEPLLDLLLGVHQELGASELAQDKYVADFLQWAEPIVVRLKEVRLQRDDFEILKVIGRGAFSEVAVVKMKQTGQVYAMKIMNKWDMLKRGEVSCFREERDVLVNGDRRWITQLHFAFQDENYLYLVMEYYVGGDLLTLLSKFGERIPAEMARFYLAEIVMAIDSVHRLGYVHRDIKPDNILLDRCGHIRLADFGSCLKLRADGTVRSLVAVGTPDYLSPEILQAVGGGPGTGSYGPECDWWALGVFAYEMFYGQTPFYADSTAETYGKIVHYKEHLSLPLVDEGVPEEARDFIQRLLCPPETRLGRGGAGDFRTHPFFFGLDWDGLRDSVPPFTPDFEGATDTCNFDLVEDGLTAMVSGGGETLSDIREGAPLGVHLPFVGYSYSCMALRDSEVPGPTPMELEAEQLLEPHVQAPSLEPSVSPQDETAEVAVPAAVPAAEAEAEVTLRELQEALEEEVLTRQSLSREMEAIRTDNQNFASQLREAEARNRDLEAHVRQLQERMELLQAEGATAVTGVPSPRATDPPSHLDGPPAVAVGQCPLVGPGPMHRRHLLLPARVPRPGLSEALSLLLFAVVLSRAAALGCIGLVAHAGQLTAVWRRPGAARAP

[12] = target: Ephrin type-A receptor 1 (Homo sapiens) (UniProt P21709); conditions: Compound concentration 1000.0 nM
[13] = target: Ephrin type-B receptor 4 (Homo sapiens) (UniProt P54760); conditions: Compound concentration 1000.0 nM
[14] = target: Tyrosine-protein kinase Fer (Homo sapiens) (UniProt P16591); conditions: Compound concentration 1000.0 nM
[15] = system: Receptor-type tyrosine-protein kinase FLT3 (Homo sapiens), P36888 [UNDEFINED MUTATION]; conditions: Compound concentration 1000.0 nM
[16] = target: Homeodomain-interacting protein kinase 1 (Homo sapiens) (UniProt Q86Z02); conditions: Compound concentration 1000.0 nM
[17] = target: Mitogen-activated protein kinase kinase kinase kinase 1 (Homo sapiens) (UniProt Q92918); conditions: Compound concentration 1000.0 nM
[18] = target: Interleukin-1 receptor-associated kinase 1 (Homo sapiens) (UniProt P51617); conditions: Compound concentration 1000.0 nM
[19] = target: Interleukin-1 receptor-associated kinase 3 (Homo sapiens) (UniProt Q9Y616); conditions: Compound concentration 1000.0 nM
[20] = target: Tyrosine-protein kinase JAK2 (Homo sapiens) (UniProt O60674); conditions: Compound concentration 1000.0 nM
Chain of Tyrosine-protein kinase JAK2 (Homo sapiens) (O60674 whole entry): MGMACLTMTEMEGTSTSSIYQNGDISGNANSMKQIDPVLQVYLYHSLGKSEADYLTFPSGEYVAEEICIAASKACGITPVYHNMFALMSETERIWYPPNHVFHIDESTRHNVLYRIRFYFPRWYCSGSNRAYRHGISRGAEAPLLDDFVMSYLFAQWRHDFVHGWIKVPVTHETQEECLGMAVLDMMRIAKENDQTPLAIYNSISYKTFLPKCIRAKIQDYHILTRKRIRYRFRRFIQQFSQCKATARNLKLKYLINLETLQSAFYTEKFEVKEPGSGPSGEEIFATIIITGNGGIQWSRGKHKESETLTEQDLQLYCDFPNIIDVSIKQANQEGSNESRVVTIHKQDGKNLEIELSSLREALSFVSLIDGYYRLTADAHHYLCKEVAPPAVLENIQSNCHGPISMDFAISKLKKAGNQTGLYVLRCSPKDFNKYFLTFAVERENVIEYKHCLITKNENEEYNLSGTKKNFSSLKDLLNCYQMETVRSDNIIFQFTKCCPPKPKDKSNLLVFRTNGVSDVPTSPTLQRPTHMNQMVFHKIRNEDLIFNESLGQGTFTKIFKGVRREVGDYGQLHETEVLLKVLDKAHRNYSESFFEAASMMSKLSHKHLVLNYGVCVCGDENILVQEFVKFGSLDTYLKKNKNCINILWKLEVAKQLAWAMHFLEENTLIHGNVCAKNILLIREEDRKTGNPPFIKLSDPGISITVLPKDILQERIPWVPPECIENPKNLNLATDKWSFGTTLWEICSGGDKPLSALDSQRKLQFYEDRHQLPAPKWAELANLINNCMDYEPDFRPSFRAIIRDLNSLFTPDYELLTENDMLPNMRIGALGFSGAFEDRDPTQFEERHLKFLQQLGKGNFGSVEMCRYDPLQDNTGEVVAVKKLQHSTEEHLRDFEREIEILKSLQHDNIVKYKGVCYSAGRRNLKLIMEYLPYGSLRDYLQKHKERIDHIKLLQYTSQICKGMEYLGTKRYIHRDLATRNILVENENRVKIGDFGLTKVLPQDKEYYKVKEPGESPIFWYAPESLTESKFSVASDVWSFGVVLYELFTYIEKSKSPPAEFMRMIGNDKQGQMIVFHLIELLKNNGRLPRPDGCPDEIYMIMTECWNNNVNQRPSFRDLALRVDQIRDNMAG

[21] = system: Mast/stem cell growth factor receptor Kit (Homo sapiens), P10721 [V559D]; conditions: Compound concentration 1000.0 nM
Chain of Mast/stem cell growth factor receptor Kit (Homo sapiens), P10721 [V559D] (P10721 whole entry V559D): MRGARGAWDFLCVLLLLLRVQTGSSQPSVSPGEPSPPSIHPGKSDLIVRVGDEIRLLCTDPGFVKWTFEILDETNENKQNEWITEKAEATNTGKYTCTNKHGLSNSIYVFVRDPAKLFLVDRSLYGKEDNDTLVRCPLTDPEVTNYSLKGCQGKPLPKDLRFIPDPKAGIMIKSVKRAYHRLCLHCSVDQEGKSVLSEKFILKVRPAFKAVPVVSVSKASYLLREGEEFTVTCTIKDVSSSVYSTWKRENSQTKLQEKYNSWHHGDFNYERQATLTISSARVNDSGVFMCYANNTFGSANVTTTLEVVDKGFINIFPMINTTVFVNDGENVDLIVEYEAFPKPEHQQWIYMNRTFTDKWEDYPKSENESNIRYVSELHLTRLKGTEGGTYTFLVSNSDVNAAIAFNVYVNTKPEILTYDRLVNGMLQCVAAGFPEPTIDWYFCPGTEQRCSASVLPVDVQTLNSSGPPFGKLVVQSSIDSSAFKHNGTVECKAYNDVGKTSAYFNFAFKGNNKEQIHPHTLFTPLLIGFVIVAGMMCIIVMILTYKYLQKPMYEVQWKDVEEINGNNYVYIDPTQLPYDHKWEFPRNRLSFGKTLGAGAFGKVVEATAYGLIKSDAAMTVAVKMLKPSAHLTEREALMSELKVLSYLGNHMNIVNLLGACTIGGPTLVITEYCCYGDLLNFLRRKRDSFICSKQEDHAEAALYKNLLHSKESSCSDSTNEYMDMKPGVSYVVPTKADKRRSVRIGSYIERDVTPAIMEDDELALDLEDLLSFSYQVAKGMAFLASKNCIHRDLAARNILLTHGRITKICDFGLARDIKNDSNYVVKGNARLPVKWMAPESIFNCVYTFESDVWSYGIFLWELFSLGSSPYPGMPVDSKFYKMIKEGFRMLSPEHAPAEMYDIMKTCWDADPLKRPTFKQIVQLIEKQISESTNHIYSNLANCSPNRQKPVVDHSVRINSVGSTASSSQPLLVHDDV

[22] = target: Serine/threonine-protein kinase mTOR (Homo sapiens) (UniProt P42345); conditions: Compound concentration 1000.0 nM
[23] = target: Serine/threonine-protein kinase Nek7 (Homo sapiens) (UniProt Q8TDX7); conditions: Compound concentration 1000.0 nM
[24] = target: Mitogen-activated protein kinase kinase kinase 14 (Homo sapiens) (UniProt Q99558); conditions: Compound concentration 1000.0 nM
[25] = target: Serine/threonine-protein kinase NIM1 (Homo sapiens) (UniProt Q8IY84); conditions: Compound concentration 1000.0 nM
[26] = target: Serine/threonine-protein kinase PAK 1 (Homo sapiens) (UniProt Q13153); conditions: Compound concentration 1000.0 nM
[27] = system: Phosphatidylinositol 4,5-bisphosphate 3-kinase catalytic subunit alpha isoform (Homo sapiens), P42336 [C420R]; conditions: Compound concentration 1000.0 nM
Chain of Phosphatidylinositol 4,5-bisphosphate 3-kinase catalytic subunit alpha isoform (Homo sapiens), P42336 [C420R] (P42336 whole entry C420R, canonical isoform): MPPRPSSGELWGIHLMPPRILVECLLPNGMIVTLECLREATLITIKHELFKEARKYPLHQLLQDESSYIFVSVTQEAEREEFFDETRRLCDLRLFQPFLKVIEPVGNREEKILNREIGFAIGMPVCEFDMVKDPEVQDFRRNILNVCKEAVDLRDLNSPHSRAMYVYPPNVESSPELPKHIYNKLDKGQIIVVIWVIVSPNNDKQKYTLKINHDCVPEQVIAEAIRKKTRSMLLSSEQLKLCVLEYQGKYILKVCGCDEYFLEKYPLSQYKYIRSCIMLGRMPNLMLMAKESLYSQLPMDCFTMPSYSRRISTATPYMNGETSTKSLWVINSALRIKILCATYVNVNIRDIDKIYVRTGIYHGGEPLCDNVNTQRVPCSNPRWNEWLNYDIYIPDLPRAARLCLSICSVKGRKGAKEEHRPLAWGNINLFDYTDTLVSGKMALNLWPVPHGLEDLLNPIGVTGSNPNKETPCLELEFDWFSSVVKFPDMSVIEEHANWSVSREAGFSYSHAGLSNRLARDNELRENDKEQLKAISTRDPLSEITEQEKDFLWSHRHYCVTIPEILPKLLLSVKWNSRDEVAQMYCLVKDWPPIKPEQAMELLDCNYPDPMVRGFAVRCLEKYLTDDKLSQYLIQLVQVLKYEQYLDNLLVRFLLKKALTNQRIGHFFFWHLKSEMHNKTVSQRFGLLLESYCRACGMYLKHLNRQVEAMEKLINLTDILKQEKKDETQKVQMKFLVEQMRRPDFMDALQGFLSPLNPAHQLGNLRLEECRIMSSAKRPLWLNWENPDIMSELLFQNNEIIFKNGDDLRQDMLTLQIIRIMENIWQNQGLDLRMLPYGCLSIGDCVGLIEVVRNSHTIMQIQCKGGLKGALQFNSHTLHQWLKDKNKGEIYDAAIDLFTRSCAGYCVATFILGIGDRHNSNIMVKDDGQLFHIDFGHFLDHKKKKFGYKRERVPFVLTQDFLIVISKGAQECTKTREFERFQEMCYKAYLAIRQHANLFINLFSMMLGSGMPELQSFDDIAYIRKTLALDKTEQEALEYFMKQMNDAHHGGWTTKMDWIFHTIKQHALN

[28] = system: Phosphatidylinositol 4,5-bisphosphate 3-kinase catalytic subunit alpha isoform (Homo sapiens), P42336 [E545A]; conditions: Compound concentration 1000.0 nM
Chain of Phosphatidylinositol 4,5-bisphosphate 3-kinase catalytic subunit alpha isoform (Homo sapiens), P42336 [E545A] (P42336 whole entry E545A, canonical isoform): as the sequence (P42336 whole entry C420R, canonical isoform) above, with R420C, E545A counted along it

[29] = target: Serine/threonine-protein kinase N1 (Homo sapiens) (UniProt Q16512); conditions: Compound concentration 1000.0 nM
[30] = target: Protein kinase C eta type (Homo sapiens) (UniProt P24723); conditions: Compound concentration 1000.0 nM
[31] = target: Protein kinase C theta type (Homo sapiens) (UniProt Q04759); conditions: Compound concentration 1000.0 nM
[32] = target: Serine/threonine-protein kinase D1 (Homo sapiens) (UniProt Q15139); conditions: Compound concentration 1000.0 nM
[33] = target: RAF proto-oncogene serine/threonine-protein kinase (Homo sapiens) (UniProt P04049); conditions: Compound concentration 1000.0 nM
Chain of RAF proto-oncogene serine/threonine-protein kinase (Homo sapiens) (P04049 whole entry): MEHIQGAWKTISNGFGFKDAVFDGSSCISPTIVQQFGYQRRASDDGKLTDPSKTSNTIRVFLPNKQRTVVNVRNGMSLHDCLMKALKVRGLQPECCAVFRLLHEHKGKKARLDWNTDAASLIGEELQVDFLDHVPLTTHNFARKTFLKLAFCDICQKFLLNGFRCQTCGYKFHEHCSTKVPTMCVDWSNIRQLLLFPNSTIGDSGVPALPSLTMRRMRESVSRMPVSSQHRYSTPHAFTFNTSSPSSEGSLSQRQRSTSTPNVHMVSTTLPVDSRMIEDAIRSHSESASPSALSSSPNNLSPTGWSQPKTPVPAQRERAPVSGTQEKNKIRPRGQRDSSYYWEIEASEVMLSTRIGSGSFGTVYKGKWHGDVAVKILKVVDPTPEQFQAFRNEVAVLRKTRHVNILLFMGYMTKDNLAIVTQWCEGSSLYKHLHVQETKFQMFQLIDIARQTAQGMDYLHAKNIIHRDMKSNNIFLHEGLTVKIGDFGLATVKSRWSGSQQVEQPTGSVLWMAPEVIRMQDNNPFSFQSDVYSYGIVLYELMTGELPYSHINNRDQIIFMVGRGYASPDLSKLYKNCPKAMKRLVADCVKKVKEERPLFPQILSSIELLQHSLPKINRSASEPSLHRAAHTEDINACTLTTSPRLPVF

[34] = target: Serine/threonine-protein kinase RIO2 (Homo sapiens) (UniProt Q9BVS4); conditions: Compound concentration 1000.0 nM
[35] = target: Ribosomal protein S6 kinase alpha-1 (Homo sapiens) (UniProt Q15418); conditions: Compound concentration 1000.0 nM
[36] = target: Ribosomal protein S6 kinase alpha-6 (Homo sapiens) (UniProt Q9UK32); conditions: Compound concentration 1000.0 nM
[37] = target: Ribosomal protein S6 kinase beta-1 (Homo sapiens) (UniProt P23443); conditions: Compound concentration 1000.0 nM
[38] = target: Serine/threonine-protein kinase SBK1 (Homo sapiens) (UniProt Q52WX2); conditions: Compound concentration 1000.0 nM
[39] = target: STE20-like serine/threonine-protein kinase (Homo sapiens) (UniProt Q9H2G2); conditions: Compound concentration 1000.0 nM
[40] = target: Serine/threonine-protein kinase TAO1 (Homo sapiens) (UniProt Q7L7X3); conditions: Compound concentration 1000.0 nM
[41] = target: TGF-beta receptor type-1 (Homo sapiens) (UniProt P36897); conditions: Compound concentration 1000.0 nM
[42] = target: Serine/threonine-protein kinase tousled-like 2 (Homo sapiens) (UniProt Q86UE8); conditions: Compound concentration 1000.0 nM
[43] = target: Dual specificity protein kinase TTK (Homo sapiens) (UniProt P33981); conditions: Compound concentration 1000.0 nM
[44] = target: D(1A) dopamine receptor (Homo sapiens) (UniProt P21728); conditions: Compound concentration 10.0 uM
[45] = target: D(2) dopamine receptor (Homo sapiens) (UniProt P14416); conditions: Compound concentration 10.0 uM

O=c1nc(-c2ccccn2)sc2ccccc12 [BTZO-1]
inactive: residual activity [1] 99% | residual activity [2] 82% | residual activity [3] 89% | residual activity [4] 88% | residual activity [5] 100% | residual activity [6] 100% | residual activity [7] 71% | residual activity [8] 100% | residual activity [9] 97% | residual activity [10] 88% | residual activity [11] 100% | residual activity [12] 100% | residual activity [13] 100% | residual activity [14] 94% | residual activity [15] 100% | residual activity [16] 61% | residual activity [17] 100% | residual activity [18] 100% | residual activity [19] 82% | residual activity [20] 100% | residual activity [21] 95% | residual activity [22] 100% | residual activity [23] 75% | residual activity [24] 100% | residual activity [25] 100% | residual activity [26] 94% | residual activity [27] 94% | residual activity [28] 92% | residual activity [29] 77% | residual activity [30] 98% | residual activity [31] 90% | residual activity [32] 100% | residual activity [33] 100% | residual activity [34] 94% | residual activity [35] 100% | residual activity [36] 92% | residual activity [37] 100% | residual activity [38] 100% | residual activity [39] 85% | residual activity [40] 92% | residual activity [41] 97% | residual activity [42] 96% | residual activity [43] 100% | inhibition [44] 3.24% | inhibition [45] 22.9%

O=C1NC(c2ccccn2)Sc2ccccc21 (stereo not given) [BTZO-4]
inactive: residual activity [1] 84% | residual activity [2] 73% | residual activity [3] 72% | residual activity [4] 98% | residual activity [5] 89% | residual activity [6] 100% | residual activity [7] 65% | residual activity [8] 94% | residual activity [9] 72% | residual activity [10] 88% | residual activity [11] 100% | residual activity [12] 100% | residual activity [13] 100% | residual activity [14] 84% | residual activity [15] 100% | residual activity [16] 75% | residual activity [17] 95% | residual activity [18] 96% | residual activity [19] 87% | residual activity [20] 84% | residual activity [21] 100% | residual activity [22] 100% | residual activity [23] 68% | residual activity [24] 92% | residual activity [25] 100% | residual activity [26] 96% | residual activity [27] 100% | residual activity [28] 97% | residual activity [29] 60% | residual activity [30] 100% | residual activity [31] 76% | residual activity [32] 100% | residual activity [33] 100% | residual activity [34] 83% | residual activity [35] 100% | residual activity [36] 81% | residual activity [37] 75% | residual activity [38] 100% | residual activity [39] 76% | residual activity [40] 96% | residual activity [41] 100% | residual activity [42] 96% | residual activity [43] 91% | inhibition [44] 7.77% | inhibition [45] -3.91%
